Substitutions are numbered along the chain they refer to. Values joined by “and” are separate entries in the source; they are usually repeats but may differ in a detail not shown here. Equal values may be shown once. Read-outs that look alike come from different tables or passages of the source.
Legend:
rho-tag(39)-Olfr49 [1] = target: T1, rho-tag(39)-Olfr49 (Mus musculus, UniProt Q9Z1V0); experiment: Odorant-induced Ca2+ influx (FLIPR) in forskolin-pre-treated HeLa-Cx43/CNGA2 cells expressing rho-tag(39)-Olfr49; format: cell-based
T1 construct: PCR-amplified the full-length coding regions of mouse Olfr49 (1-C6, NM010991); rho-tag(39): first 39 amino acids of bovine rhodopsin (N); expressed in transfected cells
T1 sequence (Q9Z1V0 1-313): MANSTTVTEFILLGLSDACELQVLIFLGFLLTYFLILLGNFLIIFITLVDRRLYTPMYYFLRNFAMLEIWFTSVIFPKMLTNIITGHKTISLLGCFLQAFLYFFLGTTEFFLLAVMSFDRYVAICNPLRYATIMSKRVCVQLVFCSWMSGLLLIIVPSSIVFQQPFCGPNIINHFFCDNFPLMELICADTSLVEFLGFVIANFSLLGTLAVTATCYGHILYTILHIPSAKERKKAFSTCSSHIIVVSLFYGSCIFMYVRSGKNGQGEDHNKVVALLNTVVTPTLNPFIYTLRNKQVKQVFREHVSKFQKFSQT

CNGA2 channel = target: T2, CNGA2 channel (Bos taurus, UniProt Q03041); experiment: Inhibition of db-cAMP-activated CNGA2-dependent Ca2+ influx into HeLa-Cx43/CNGA2 cells; format: cell-based, bovine; settings: for Block of db-cAMP-induced Ca2+ influx by CNGA2: n=2
T2 construct: expressed in transfected cells
T2 sequence (Q03041 1-663): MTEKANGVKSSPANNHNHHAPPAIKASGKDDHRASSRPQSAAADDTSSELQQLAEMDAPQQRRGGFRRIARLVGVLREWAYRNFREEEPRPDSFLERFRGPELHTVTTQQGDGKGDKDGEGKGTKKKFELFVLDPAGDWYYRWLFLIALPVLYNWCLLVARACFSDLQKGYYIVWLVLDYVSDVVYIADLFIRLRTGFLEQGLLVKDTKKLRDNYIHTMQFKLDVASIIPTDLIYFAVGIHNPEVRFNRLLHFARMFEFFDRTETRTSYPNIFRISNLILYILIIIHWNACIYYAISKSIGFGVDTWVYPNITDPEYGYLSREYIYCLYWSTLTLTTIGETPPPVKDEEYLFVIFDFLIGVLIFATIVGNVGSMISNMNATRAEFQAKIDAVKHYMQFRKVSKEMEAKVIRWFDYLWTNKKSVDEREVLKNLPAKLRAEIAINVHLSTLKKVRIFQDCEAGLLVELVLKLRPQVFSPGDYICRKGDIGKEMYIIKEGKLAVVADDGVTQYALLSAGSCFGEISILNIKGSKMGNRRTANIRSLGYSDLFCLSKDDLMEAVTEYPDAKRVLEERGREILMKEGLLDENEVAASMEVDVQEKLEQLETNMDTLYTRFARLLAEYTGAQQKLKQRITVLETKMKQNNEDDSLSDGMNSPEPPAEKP

rho-tag(39)-Olfr49 [2] = target: T1, rho-tag(39)-Olfr49; format: cell-based; settings: for Effect of pre-treatment on (−)citronellal-induced cAMP production: (−)citronellal 10 μM, thapsigargin 1 μM
Procedure: After 40 hours, the cells were pre-incubated with IBMX (100 μM, 30 min) and exposed to (−)citronellal or isoproterenol (2 min). The pre-stimulation with forskolin was generally omitted.
The inventors tested the possibility to follow an increase in cGMP by transfecting of the rat particular guanylyl cyclase type B (GC-B) into HeLa-Cx43/CNGA2 cells, for which the C type natriuretic peptide (CNP) is the known agonist (Lucas et al., 2000). […] The quantitative comparison of the relative potencies of the agonists by determining of their EC50 values is a standard method in the GPCR and agonist-classification.

[3] = test system: rho-tag(20)-M4 chimeric mouse ORs; format: cell-based; settings: for Responding OR chimeras: 93 OR chimeras
rho-tag(39)-OR1A1 = target: T3, rho-tag(39)-OR1A1 (Homo sapiens, UniProt Q9P1Q5)
T3 sequence (Q9P1Q5 1-309): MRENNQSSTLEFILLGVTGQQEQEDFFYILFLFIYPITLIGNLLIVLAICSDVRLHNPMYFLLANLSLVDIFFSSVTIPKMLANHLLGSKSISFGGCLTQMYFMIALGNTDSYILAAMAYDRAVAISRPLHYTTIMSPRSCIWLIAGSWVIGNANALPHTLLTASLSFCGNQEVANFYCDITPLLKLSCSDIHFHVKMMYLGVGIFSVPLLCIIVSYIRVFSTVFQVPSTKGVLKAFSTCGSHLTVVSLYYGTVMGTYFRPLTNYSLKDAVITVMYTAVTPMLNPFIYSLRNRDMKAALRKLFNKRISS
Source text: (§1) In in situ RNA hybridisation-experiments, the inventors examined the gene expression of Olfr41, Olfr43, Olfr49, MOR261-10, MOR267-1, and Ors6 in OSN of the mouse OE.

rho-tag(39)-Olfr43 = target: T4, rho-tag(39)-Olfr43 (Mus musculus, UniProt Q7TRX1)
T4 sequence (Q7TRX1 1-313): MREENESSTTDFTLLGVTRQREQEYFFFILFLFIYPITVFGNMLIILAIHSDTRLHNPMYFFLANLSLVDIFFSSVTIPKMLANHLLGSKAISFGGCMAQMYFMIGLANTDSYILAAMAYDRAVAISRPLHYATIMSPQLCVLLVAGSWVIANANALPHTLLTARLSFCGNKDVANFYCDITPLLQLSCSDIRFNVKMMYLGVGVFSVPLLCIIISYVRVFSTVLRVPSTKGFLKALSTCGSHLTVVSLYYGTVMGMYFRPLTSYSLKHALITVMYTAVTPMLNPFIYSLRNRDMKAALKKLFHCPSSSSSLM
Source text: as §1

rho-tag(39)-LOC331758 = target: T5, rho-tag(39)-LOC331758 (Mus musculus, UniProt Q7TRX2)
T5 sequence (Q7TRX2 1-313): T4 sequence (Q7TRX1 1-313) with T10I, G106S, A108G, P306H
Source text: as §1

Olfr43 = target: T6, Olfr43 (Mus musculus, UniProt Q7TRX1); settings: 1 μM, chimera A1 and rho-tag(39)-full length OR, n=3
T6 sequence (Q7TRX1 1-313): T4 sequence (Q7TRX1 1-313)

Olfr49 = target: T7, Olfr49 (Mus musculus, UniProt Q9Z1V0); settings: n=3
T7 sequence (Q9Z1V0 1-313): T1 sequence (Q9Z1V0 1-313)

mOR267-1 = target: T8, mOR267-1 (Mus musculus, UniProt Q8VBW9); settings: chimera F2 and rho-tag(39)-full length OR, n=3
T8 sequence (Q8VBW9 1-316): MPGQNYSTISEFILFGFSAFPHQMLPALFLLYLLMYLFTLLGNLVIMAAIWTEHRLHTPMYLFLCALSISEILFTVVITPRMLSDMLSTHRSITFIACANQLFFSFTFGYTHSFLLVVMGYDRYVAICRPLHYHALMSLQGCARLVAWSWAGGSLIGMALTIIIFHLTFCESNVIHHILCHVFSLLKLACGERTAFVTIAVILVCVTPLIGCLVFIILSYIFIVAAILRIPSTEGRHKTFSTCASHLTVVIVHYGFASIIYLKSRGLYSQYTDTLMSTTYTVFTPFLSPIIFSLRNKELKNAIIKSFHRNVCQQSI

mOR261-10 = settings: 10 μM, chimera H1 and rho-tag(39)-full length OR, n=3
[4] = target: T9, homomeric olfactory CNGA2 channel (Rattus norvegicus, UniProt Q00195); settings: Finn et al., 1998; cited from earlier work
T9 construct: host or cells: HEK293 (in the cited work)
T9 sequence (Q00195 1-664): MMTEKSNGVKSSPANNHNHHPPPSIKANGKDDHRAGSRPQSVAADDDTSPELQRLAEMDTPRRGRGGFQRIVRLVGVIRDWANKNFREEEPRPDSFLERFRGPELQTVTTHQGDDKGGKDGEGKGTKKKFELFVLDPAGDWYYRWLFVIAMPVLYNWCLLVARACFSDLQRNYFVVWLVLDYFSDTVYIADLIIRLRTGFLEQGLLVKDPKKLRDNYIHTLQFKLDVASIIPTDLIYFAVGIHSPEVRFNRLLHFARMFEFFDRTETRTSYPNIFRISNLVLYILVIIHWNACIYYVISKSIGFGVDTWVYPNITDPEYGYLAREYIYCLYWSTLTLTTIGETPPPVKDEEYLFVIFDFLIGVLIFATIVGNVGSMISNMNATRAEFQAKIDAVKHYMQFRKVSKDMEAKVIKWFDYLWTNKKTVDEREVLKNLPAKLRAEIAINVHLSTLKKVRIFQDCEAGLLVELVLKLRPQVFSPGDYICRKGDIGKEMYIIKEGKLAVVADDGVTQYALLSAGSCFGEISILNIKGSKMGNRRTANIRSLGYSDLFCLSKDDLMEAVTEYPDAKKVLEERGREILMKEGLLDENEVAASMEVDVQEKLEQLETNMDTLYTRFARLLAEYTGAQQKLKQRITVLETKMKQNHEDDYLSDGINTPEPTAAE

rho-tag(39)-Olfr41 = format: cell-based, mouse; settings: 10 μM, thapsigargin pre-treated cells
rho-tag(39)-Ors6 = format: cell-based, mouse; settings: 10 μM, thapsigargin pre-treated cells
[5] = EC50 for odorant-induced Ca2+ influx, stably expressed rho-tag(39)-Olfr49, forskolin-pre-treated

SMILES: CC(C)=CCCC(C)CC=O (single isomer, unassigned; (+)) [(+)citronellal]
- EC50 (rho-tag(39)-Olfr49 [1]; [5]): 2.6 ± 0.4 µM

SMILES: CC(C)=CCCC(C)CC=O (single isomer, unassigned; (-)) [(−)citronellal]
- IC50 (CNGA2 channel; IC50 for block of db-cAMP-induced Ca2+ influx by CNGA2, db-cAMP-pre-treated HeLa-Cx43/CNGA2 cells, FLIPR): 108 µM and 132 µM
- EC50 (rho-tag(39)-Olfr49 [1]; EC50 for (−)citronellal-induced Ca2+ influx, transiently transfected rho-tag(39)-Olfr49, forskolin-pre-treated): 3.9 µM and 4 µM
- EC50 (rho-tag(39)-Olfr49 [1]; [5]): 2.1 µM
- EC50 (rho-tag(39)-Olfr49 [2]; EC50 for (−)citronellal-induced cAMP production, rho-tag(39)-Olfr49 stable cell line, n=2): 0.4 µM and 0.49 µM
- Responding OR chimeras ([3]; odorant 1 μM): 3%
- Responding OR chimeras ([3]; odorant 3 μM): 43%
- Percentage of responding ORs ([3]; subgroup of 67 OR chimeras, odorant 1 μM, n=1): 9%
- EC50 (rho-tag(39)-OR1A1): 2.2 ± 0.4 µM
- EC50 (rho-tag(39)-Olfr43): 2.1 ± 0.2 µM
- EC50 (rho-tag(39)-LOC331758): 3.2 ± 0.8 µM
- Response in single cell Ca2+ imaging (Olfr43): selectively responded
- Response in single cell Ca2+ imaging (Olfr49; 1 μM): selectively responded
- Response in single cell Ca2+ imaging (mOR267-1; 1 μM): selectively responded

SMILES: CC(C)=CCCC(C)CCO (stereo not drawn) [beta-citronellol]
- Block of db-cAMP-induced Ca2+ influx by CNGA2 (CNGA2 channel; at up to 3 mM): did not block
- EC50 (rho-tag(39)-Olfr49 [1]; [5]): 32.8 ± 2.7 µM
- Responding OR chimeras ([3]; odorant 10 μM): 22%
- Response in single cell Ca2+ imaging (Olfr49; 10 μM): selectively responded
- Response in single cell Ca2+ imaging (mOR267-1; 10 μM): selectively responded
- Response in single cell Ca2+ imaging (mOR261-10): selectively responded

SMILES: Nc1nc2c(ncn2[C@@H]2O[C@@H]3COP(=O)(O)O[C@H]3[C@H]2O)c(=O)[nH]1 [cGMP]
- EC50 [4]: 3 µM
- EC50 for cGMP lower than the one for cAMP [4]: 20 fold

SMILES: CC(C)=CCCC(C)CC(=O)O (centres unmarked) [citronellic acid]
- Block of db-cAMP-induced Ca2+ influx by CNGA2 (CNGA2 channel; at up to 300 μM): did not block
- Response of the 93 OR chimeras ([3]; up to 10 μM, n=2): None of the 93 OR chimeras responded

SMILES: CCCCCCC=O [heptanal]
- Block of db-cAMP-induced Ca2+ influx by CNGA2 (CNGA2 channel; at up to 100 μM): did not block
- EC50 (rho-tag(39)-Olfr49 [1]; stably expressed rho-tag(39)-Olfr49, forskolin-pre-treated, read-out: EC50 for odorant-induced Ca2+ influx): 6 ± 1 µM
- Ca2+ influx (rho-tag(39)-Olfr41): triggered the Ca2+ influx

SMILES: O=C(O)CCCCCCCC(=O)O [nonandione acid]
- Ca2+ influx (rho-tag(39)-Ors6): induced a Ca2+ influx

SMILES: CCCCCCCC=O [octanal]
- Block of db-cAMP-induced Ca2+ influx by CNGA2 (CNGA2 channel; at up to 100 μM): did not block
- EC50 (rho-tag(39)-Olfr49 [1]; [5]): 3.7 ± 0.1 µM

SMILES: C/C=C(/C)C(=O)O[C@H]1C(C)=C2[C@H]([C@@H]1OC(=O)CCCCCCC)[C@@](C)(OC(C)=O)C[C@H](OC(=O)CCC)[C@@]1(O)[C@H]2OC(=O)[C@@]1(C)O [thapsigargin]
- Effect of pre-treatment on (−)citronellal-induced cAMP production (rho-tag(39)-Olfr49 [2]; cells transfected with hG-alpha-olf): reduced
- Effect of pre-treatment on (−)citronellal-induced cAMP production (rho-tag(39)-Olfr49 [2]; cells without hG-alpha-olf, compared to cells without pre-treatment, forskolin 2.5 μM): significantly increased
